Results reported in PubChem BioAssay (NCI).
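Where inhibition never reached the appropriate level, the endpoint shown equals the highest concentration tested. Otherwise, values were interpolated linearly from a five-concentration, 48-hour dose response in 96-well plates. TGI: total growth inhibition.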

What was measured:
Assay in all cases: NCI anticancer screen, dose series, 48 h
[1] = tested on: NCI-H23 lung
[2] = tested on: BT-549 breast
[3] = tested on: SK-OV-3 ovarian
[4] = tested on: HCT-15 colon
[5] = tested on: MOLT-4 leukemia
[6] = tested on: NCI/ADR-RES ovarian
[7] = tested on: TK-10 renal
[8] = tested on: A498 renal
[9] = tested on: NCI-H460 lung
[10] = tested on: OVCAR-5 ovarian
[11] = tested on: CAKI-1 renal
[12] = tested on: HCC-2998 colon
[13] = tested on: NCI-H226 lung
[14] = tested on: HOP-62 NSCLC
[15] = tested on: U251 CNS
[16] = tested on: SK-MEL-5 melanoma
[17] = tested on: KM12 colon
[18] = tested on: SNB-19 CNS
[19] = tested on: M14 melanoma
[20] = tested on: UACC-62 melanoma
[21] = tested on: IGROV1 ovarian
[22] = tested on: LOX IMVI melanoma
[23] = tested on: SN12C renal
[24] = tested on: NCI-H522 lung
[25] = tested on: EKVX NSCLC
[26] = tested on: HT29 colon
[27] = tested on: MCF7 breast
[28] = tested on: UACC-257 melanoma
[29] = tested on: SNB-75 CNS
[30] = tested on: SF-539 CNS
[31] = tested on: MALME-3M melanoma
[32] = tested on: SF-268 CNS
[33] = tested on: SW-620 colon
[34] = tested on: SR leukemia
[35] = tested on: HS 578T breast
[36] = tested on: HOP-92 NSCLC
[37] = tested on: OVCAR-4 ovarian
[38] = tested on: 786-0 renal
[39] = tested on: OVCAR-8 ovarian
[40] = tested on: MDA-N
[41] = tested on: MDA-MB-435
[42] = tested on: HCT-116 colon
[43] = tested on: UO-31 renal
[44] = tested on: A549 NSCLC
[45] = tested on: MDA-MB-231 breast
[46] = tested on: T-47D breast
[47] = tested on: COLO 205 colon
[48] = tested on: OVCAR-3 ovarian
[49] = tested on: ACHN renal
[50] = tested on: RXF 393 renal
[51] = tested on: RPMI-8226 leukemia
[52] = tested on: PC-3 prostate
[53] = tested on: SK-MEL-2 melanoma
[54] = tested on: SF-295 CNS
[55] = tested on: K-562 leukemia
[56] = tested on: CCRF-CEM leukemia
[57] = tested on: SK-MEL-28 melanoma
[58] = tested on: HL-60(TB) leukemia
[59] = tested on: DU-145 prostate

Measured: TGI

Cc1nc2c(=O)n(-c3ccccc3)c(=O)n(-c3ccccc3)c2o1
not listed: [57] | [58] | [59]
> 100 µM: all other assays above

CCOC(=O)c1csc(NC(=O)CCN2CCN(C)CC2)n1
not listed: [2] | [21] | [23] | [24] | [25] | [31] | [32] | [38] | [42]
> 100 µM: all other assays above

COCCNc1cncc(C(N)=O)c1
not listed: [22] | [31] | [36] | [41] | [50] | [51]
> 100 µM: all other assays above

CCOC(=O)/C=C/CCC(C)(C)COC(C)=O
not listed: [2] | [8] | [31]
> 10 µM: all other assays above
